In US20220125348A1, “DETECTION OF INTERFERENT IN ANALYTE SENSING” (MEDTRONIC MINIMED, INC., priority 2020, published 2022):

Test: in vivo study of the concentration of acetaminophen in plasma and in interstitial fluid over time (FIG. 8)
From the text: FIG. 8 illustrates an in vivo study of the concentration of acetaminophen in plasma and in interstitial fluid over time;
FIG. 8 further illustrates acetaminophen measured in concentration in vivo in plasma, at line 82, and in interstitial fluid, at line 84.

measured acetaminophen concentration in interstitial fluid compared with plasma: less than that of plasma
time acetaminophen is present in interstitial fluid (interstitial fluid): over six
time acetaminophen is present in plasma (plasma): over six
Structure (SMILES): CC(=O)Nc1ccc(O)cc1 [acetaminophen]
